Measured values: PubChem BioAssay (NCI)
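All cell lines were grown in 96-well plates and treated with compound for 48 hours. GI50 marks 50% less growth. TGI: total growth inhibition.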

Assays:
Experiment in all cases: NCI anticancer screen, dose series, 48 h
DU-145 prostate = tested on: DU-145 prostate
OVCAR-4 ovarian = tested on: OVCAR-4 ovarian
MALME-3M melanoma = tested on: MALME-3M melanoma
HT29 colon = tested on: HT29 colon
U251 CNS = tested on: U251 CNS
PC-3 prostate = tested on: PC-3 prostate
CCRF-CEM leukemia = tested on: CCRF-CEM leukemia
SR leukemia = tested on: SR leukemia
UACC-62 melanoma = tested on: UACC-62 melanoma
HCT-116 colon = tested on: HCT-116 colon
OVCAR-3 ovarian = tested on: OVCAR-3 ovarian
HL-60(TB) leukemia = tested on: HL-60(TB) leukemia
TK-10 renal = tested on: TK-10 renal
CAKI-1 renal = tested on: CAKI-1 renal
HOP-62 NSCLC = tested on: HOP-62 NSCLC
SNB-75 CNS = tested on: SNB-75 CNS
SN12C renal = tested on: SN12C renal
BT-549 breast = tested on: BT-549 breast
NCI-H226 lung = tested on: NCI-H226 lung
RXF 393 renal = tested on: RXF 393 renal
MDA-MB-435 = tested on: MDA-MB-435
M14 melanoma = tested on: M14 melanoma
786-0 renal = tested on: 786-0 renal
SW-620 colon = tested on: SW-620 colon
RPMI-8226 leukemia = tested on: RPMI-8226 leukemia
SK-MEL-5 melanoma = tested on: SK-MEL-5 melanoma
NCI-H522 lung = tested on: NCI-H522 lung
T-47D breast = tested on: T-47D breast
MOLT-4 leukemia = tested on: MOLT-4 leukemia
MCF7 breast = tested on: MCF7 breast
SF-539 CNS = tested on: SF-539 CNS
KM12 colon = tested on: KM12 colon
OVCAR-5 ovarian = tested on: OVCAR-5 ovarian
EKVX NSCLC = tested on: EKVX NSCLC
K-562 leukemia = tested on: K-562 leukemia
OVCAR-8 ovarian = tested on: OVCAR-8 ovarian
SK-MEL-2 melanoma = tested on: SK-MEL-2 melanoma
SF-268 CNS = tested on: SF-268 CNS
UO-31 renal = tested on: UO-31 renal
HOP-92 NSCLC = tested on: HOP-92 NSCLC
IGROV1 ovarian = tested on: IGROV1 ovarian
MDA-MB-231 breast = tested on: MDA-MB-231 breast
HCT-15 colon = tested on: HCT-15 colon
A549 NSCLC = tested on: A549 NSCLC
NCI-H460 lung = tested on: NCI-H460 lung
ACHN renal = tested on: ACHN renal
NCI-H23 lung = tested on: NCI-H23 lung
UACC-257 melanoma = tested on: UACC-257 melanoma
SF-295 CNS = tested on: SF-295 CNS
LOX IMVI melanoma = tested on: LOX IMVI melanoma
SK-OV-3 ovarian = tested on: SK-OV-3 ovarian

COc1cc(CCC(=O)NC[C@@H](O)c2ccccc2)ccc1O
GI50 (DU-145 prostate): > 100 µM | TGI (DU-145 prostate): > 100 µM | GI50 (OVCAR-4 ovarian): > 100 µM | TGI (OVCAR-4 ovarian): > 100 µM | GI50 (MALME-3M melanoma): > 100 µM | TGI (MALME-3M melanoma): > 100 µM | GI50 (HT29 colon): > 100 µM | TGI (HT29 colon): > 100 µM | GI50 (U251 CNS): > 100 µM | TGI (U251 CNS): > 100 µM | GI50 (PC-3 prostate): > 100 µM | TGI (PC-3 prostate): > 100 µM | GI50 (CCRF-CEM leukemia): > 100 µM | TGI (CCRF-CEM leukemia): > 100 µM | GI50 (SR leukemia): 61.6 µM | TGI (SR leukemia): > 100 µM | GI50 (UACC-62 melanoma): > 100 µM | TGI (UACC-62 melanoma): > 100 µM | GI50 (HCT-116 colon): > 100 µM | TGI (HCT-116 colon): > 100 µM | GI50 (OVCAR-3 ovarian): > 100 µM | TGI (OVCAR-3 ovarian): > 100 µM | GI50 (HL-60(TB) leukemia): > 100 µM | TGI (HL-60(TB) leukemia): > 100 µM | GI50 (TK-10 renal): > 100 µM | TGI (TK-10 renal): > 100 µM | GI50 (CAKI-1 renal): > 100 µM | TGI (CAKI-1 renal): > 100 µM | GI50 (HOP-62 NSCLC): > 100 µM | TGI (HOP-62 NSCLC): > 100 µM | GI50 (SNB-75 CNS): > 100 µM | TGI (SNB-75 CNS): > 100 µM | GI50 (SN12C renal): > 100 µM | TGI (SN12C renal): > 100 µM | GI50 (BT-549 breast): > 100 µM | TGI (BT-549 breast): > 100 µM | GI50 (NCI-H226 lung): > 100 µM | TGI (NCI-H226 lung): > 100 µM | GI50 (RXF 393 renal): > 100 µM | TGI (RXF 393 renal): > 100 µM | GI50 (MDA-MB-435): > 100 µM | TGI (MDA-MB-435): > 100 µM | GI50 (M14 melanoma): > 100 µM | TGI (M14 melanoma): > 100 µM | GI50 (786-0 renal): > 100 µM | TGI (786-0 renal): > 100 µM | GI50 (SW-620 colon): > 100 µM | TGI (SW-620 colon): > 100 µM | GI50 (RPMI-8226 leukemia): > 100 µM | TGI (RPMI-8226 leukemia): > 100 µM | GI50 (SK-MEL-5 melanoma): > 100 µM | TGI (SK-MEL-5 melanoma): > 100 µM | GI50 (NCI-H522 lung): > 100 µM | TGI (NCI-H522 lung): > 100 µM | GI50 (T-47D breast): > 100 µM | TGI (T-47D breast): > 100 µM | GI50 (MOLT-4 leukemia): > 100 µM | TGI (MOLT-4 leukemia): > 100 µM | GI50 (MCF7 breast): > 100 µM | TGI (MCF7 breast): > 100 µM | GI50 (SF-539 CNS): > 100 µM | TGI (SF-539 CNS): > 100 µM | GI50 (KM12 colon): > 100 µM | TGI (KM12 colon): > 100 µM | GI50 (OVCAR-5 ovarian): > 100 µM | TGI (OVCAR-5 ovarian): > 100 µM | GI50 (EKVX NSCLC): > 100 µM | TGI (EKVX NSCLC): > 100 µM | GI50 (K-562 leukemia): 56.8 µM | TGI (K-562 leukemia): > 100 µM | GI50 (OVCAR-8 ovarian): > 100 µM | TGI (OVCAR-8 ovarian): > 100 µM | GI50 (SK-MEL-2 melanoma): > 100 µM | TGI (SK-MEL-2 melanoma): > 100 µM | GI50 (SF-268 CNS): > 100 µM | TGI (SF-268 CNS): > 100 µM | GI50 (UO-31 renal): > 100 µM | TGI (UO-31 renal): > 100 µM | GI50 (HOP-92 NSCLC): > 100 µM | TGI (HOP-92 NSCLC): > 100 µM | GI50 (IGROV1 ovarian): > 100 µM | TGI (IGROV1 ovarian): > 100 µM | GI50 (MDA-MB-231 breast): > 100 µM | TGI (MDA-MB-231 breast): > 100 µM | GI50 (HCT-15 colon): > 100 µM | TGI (HCT-15 colon): > 100 µM | GI50 (A549 NSCLC): > 100 µM | TGI (A549 NSCLC): > 100 µM | GI50 (NCI-H460 lung): > 100 µM | TGI (NCI-H460 lung): > 100 µM | GI50 (ACHN renal): > 100 µM | TGI (ACHN renal): > 100 µM | GI50 (NCI-H23 lung): > 100 µM | TGI (NCI-H23 lung): > 100 µM | GI50 (UACC-257 melanoma): > 100 µM | TGI (UACC-257 melanoma): > 100 µM | GI50 (SF-295 CNS): > 100 µM | TGI (SF-295 CNS): > 100 µM | GI50 (LOX IMVI melanoma): > 100 µM | TGI (LOX IMVI melanoma): > 100 µM | GI50 (SK-OV-3 ovarian): > 100 µM | TGI (SK-OV-3 ovarian): > 100 µM
